System: 885724-159-R-J1-PDC complex spheroid viability
Assay: Anticancer human tumor 885724-159-R-J1-PDC patient-derived pancreatic adenocarcinoma cell line growth inhibition [GQUAD]
Conditions: for IC50: curve of first compound; for viability, T/C: stronger effect = lower value
From the text: DNA G-quadruplex Stabilizer Agents in Combinations in Complex Spheroids
A high-throughput screen of multi-cell type tumor spheroids was designed to identify active combinations of DNA G-quadruplex stabilizer agents and targeted small molecules. Complex spheroids include a stromal component modeled by human endothelial cells (HUVEC) and fibroblasts modeled by human mesenchymal stem cells (MSCs). The concentration ranges selected for each drug and investigational agent were based upon clinically achievable concentrations if the clinical Cmax of the agent was known.
Compounds. The drugs and investigational agents: pidnarulex (CX-5461; NSC782164), APTO-253 (NSC789042), BRACO-19 (NSC847499), peposertib (NSC802822), ceralasertib (NSC780249), elimusertib (NSC800525), camonsertib (NSC841442), AZD-1390 (NSC803789), olaparib (NSC753686), talazoparib (NSC767125), ART-558 (NSC835418), sotorasib (NSC818433), MRTX-1133 (NSC836407), SN-38 (NSC673596), topotecan (NSC609699), etoposide (NSC141540), doxorubicin (NSC123127), gemcitabine (NSC613327), 5-fluorouracil (NSC19893), paclitaxel (NSC125973), vemurafenib (NSC761431), panobinostat (NSC761190), R-306465 (JNJ-16241199; NSC773264), adavosertib (NSC754352), TP-3654 (NSC805149), carboplatin (NSC241240), KSQ-4279 (NSC840948), and staurosporine (NSC755774) were obtained from the National Cancer Institute (NCI) Developmental Therapeutics Program Chemical Repository (34). The FDA-approved anticancer drug set is available from the NCI Developmental Therapeutics Program. […] The stock solutions were prepared in dimethyl sulfoxide (DMSO, Sigma-Aldrich, St. Louis, MO, cat. D2650) at 800-fold the tested concentration and stored at -70 degrees C prior to their use. All drugs and investigational agents were tested over a range starting from a high concentration at or near the clinical Cmax and decreasing in half-log increments. If the clinical Cmax for an agent had not been determined, the highest concentration tested was 10 microM.
2.3 Cell Culture. All cells were maintained in an incubator at 37 degrees C and 5% CO2 with 95% humidity. The PDC lines were cultured according to standard operating procedures established by the NCI PDMR. All PDCs were thawed and cultured in Matrigel-coated flasks prepared with a working solution of 1X Ham's F-12 nutrient mix, without supplementation (Invitrogen, cat. 11765054), 100 U/mL penicillin-streptomycin (Invitrogen, cat. 15140122), and 2.5% Matrigel (Corning Inc., cat. 354248) for the first three passages. The 857933-349-R-J2-PDC line was cultured in 6C/Colon 1B media, which includes advanced DMEM/F-12 (Thermo Fisher Scientific, cat. 12634028), 10 mM HEPES (Thermo Fisher Scientific, cat. 15630080), 1X GlutaMAX supplement (Thermo Fisher Scientific, cat. 35050061), 0.1 mg/mL primocin (InvivoGen, cat. ant-pm-2), 10% defined fetal bovine serum, heat inactivated (HyClone Laboratories Inc., cat. SH30070.03HI), 50% L-WRN conditioned media (ATCC, cat. CRL-3276), 1.25 mM N-Acetyl-L-cysteine (Sigma-Aldrich, cat. A9165), 10 mM nicotinamide (Sigma-Aldrich, cat. N0636), 1X B-27 supplement (Thermo Fisher Scientific, cat. 17504044), 1X N-2 supplement (Thermo Fisher Scientific, cat. 17502048), 10 microM Y-27632 dihydrochloride (Tocris Bioscience, cat. 1254), and 50 ng/mL human EGF recombinant protein (Thermo Fisher Scientific, cat. PHG0311). The 485176-168-R4-J1-PDC line was cultured in Panc media, which includes all 6C/Colon 1B media components plus 100 ng/mL human FGF-10 (Thermo Fisher Scientific, cat. 100-26), 500 nM SB-431542 (Selleckchem, cat. S1067), and gastrin (Tocris, cat. 3006).
[…]

[1] = second compound 0.0316 µM, first compound 0.0316 µM
[2] = second compound 0.0316 µM, first compound 0.1 µM
[3] = second compound 0.0316 µM, first compound 0.316 µM
[4] = second compound 0.0316 µM, first compound 1 µM
[5] = second compound 0.0316 µM, first compound 3.16 µM
[6] = second compound 0.0316 µM, first compound 10 µM
[7] = second compound 0.1 µM, first compound 0.0316 µM
[8] = second compound 0.1 µM, first compound 0.1 µM
[9] = second compound 0.1 µM, first compound 0.316 µM
[10] = second compound 0.1 µM, first compound 1 µM
[11] = second compound 0.1 µM, first compound 3.16 µM
[12] = second compound 0.1 µM, first compound 10 µM
[13] = second compound 0.316 µM, first compound 0.0316 µM
[14] = second compound 0.316 µM, first compound 0.1 µM
[15] = second compound 0.316 µM, first compound 0.316 µM
[16] = second compound 0.316 µM, first compound 1 µM
[17] = second compound 0.316 µM, first compound 3.16 µM
[18] = second compound 0.316 µM, first compound 10 µM
[19] = second compound 1 µM, first compound 0.0316 µM
[20] = second compound 1 µM, first compound 0.1 µM
[21] = second compound 1 µM, first compound 0.316 µM
[22] = second compound 1 µM, first compound 1 µM
[23] = second compound 1 µM, first compound 3.16 µM
[24] = second compound 1 µM, first compound 10 µM
[25] = second compound 3.16 µM, first compound 0.0316 µM
[26] = second compound 3.16 µM, first compound 0.1 µM
[27] = second compound 3.16 µM, first compound 0.316 µM
[28] = second compound 3.16 µM, first compound 1 µM
[29] = second compound 3.16 µM, first compound 3.16 µM
[30] = second compound 3.16 µM, first compound 10 µM
[31] = second compound 10 µM, first compound 0.0316 µM
[32] = second compound 10 µM, first compound 0.1 µM
[33] = second compound 10 µM, first compound 0.316 µM
[34] = second compound 10 µM, first compound 1 µM
[35] = second compound 10 µM, first compound 3.16 µM
[36] = second compound 10 µM, first compound 10 µM
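Further: spheroids exposed to agents for seven days before readout.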
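Wherever viability, T/C is given: percent of vehicle control viability where 100% = DMSO wells.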

C#Cc1c(F)ccc2cc(O)cc(-c3ncc4c(N5CC6CCC(C5)N6)nc(OCC56CCCN5CC(F)C6)nc4c3F)c12 (centres undefined) + Cc1cnc(CNC(=O)c2c(=O)c3ccc(N4CCCN(C)CC4)nc3n3c2sc2ccccc23)cn1 gave an IC50 (second compound 0.0316 µM) of 6.01 µM, an IC50 (second compound 0.1 µM) of 6.88 µM and an IC50 (second compound 0.316 µM) of 6.19 µM. For the same compound, the IC50 (second compound 1 µM) was 4.5 µM, the IC50 (second compound 3.16 µM) was 2.33 µM and the IC50 (second compound 10 µM) was 1.28 µM. The viability, T/C [1] was 91.6%, the viability, T/C [2] was 120% and the viability, T/C [3] was 117%. For the same compound, the viability, T/C [4] was 103%, the viability, T/C [5] was 67% and the viability, T/C [6] was 36.6%. It also gave a viability, T/C [7] of 106%, a viability, T/C [8] of 110% and a viability, T/C [9] of 100%. It also gave a viability, T/C [10] of 107%, a viability, T/C [11] of 71.4% and a viability, T/C [12] of 39.7%. It also gave a viability, T/C [13] of 110%, a viability, T/C [14] of 100% and a viability, T/C [15] of 90.8%. The viability, T/C [16] was 94.5%, the viability, T/C [17] was 69.5% and the viability, T/C [18] was 35%. It also gave a viability, T/C [19] of 92.8%, a viability, T/C [20] of 81.3% and a viability, T/C [21] of 84.2%. The viability, T/C [22] was 75.3%, the viability, T/C [23] was 59.9% and the viability, T/C [24] was 28.4%. For the same compound, the viability, T/C [25] was 77.3%, the viability, T/C [26] was 70.2% and the viability, T/C [27] was 70%. For the same compound, the viability, T/C [28] was 62.9%, the viability, T/C [29] was 45.3% and the viability, T/C [30] was 19.1%. It also gave a viability, T/C [31] of 61.5%, a viability, T/C [32] of 62.7% and a viability, T/C [33] of 54.6%. The viability, T/C [34] was 55.8%, the viability, T/C [35] was 36.6% and the viability, T/C [36] was 1.29%.

Work on Nc1ccn(C2OC(CO)C(O)C2(F)F)c(=O)n1 (centres undefined) + Cc1[nH]c2ccc(F)cc2c1-c1nc2c3cccnc3c3ncccc3c2[nH]1 yielded an IC50 (second compound 0.0316 µM) greater than 10 µM, an IC50 (second compound 0.1 µM) greater than 10 µM and an IC50 (second compound 0.316 µM) greater than 10 µM. The IC50 (second compound 1 µM) was greater than 10 µM, the IC50 (second compound 3.16 µM) was less than 0.0316 µM and the IC50 (second compound 10 µM) was greater than 10 µM. The viability, T/C [1] was 92.8%, the viability, T/C [2] was 100% and the viability, T/C [3] was 75.2%. It also gave a viability, T/C [4] of 75.6%, a viability, T/C [5] of 75.3% and a viability, T/C [6] of 80.8%. The viability, T/C [7] was 94.3%, the viability, T/C [8] was 82.2% and the viability, T/C [9] was 71.4%. It also gave a viability, T/C [10] of 79.5%, a viability, T/C [11] of 73.8% and a viability, T/C [12] of 86.6%. The viability, T/C [13] was 93.6%, the viability, T/C [14] was 89.3% and the viability, T/C [15] was 77.3%. It also gave a viability, T/C [16] of 72.2%, a viability, T/C [17] of 79.3% and a viability, T/C [18] of 69.3%. It also gave a viability, T/C [19] of 83.3%, a viability, T/C [20] of 67.6% and a viability, T/C [21] of 65.8%. For the same compound, the viability, T/C [22] was 56.6%, the viability, T/C [23] was 70.7% and the viability, T/C [24] was 55%. The viability, T/C [25] was 43.3%, the viability, T/C [26] was 26.1% and the viability, T/C [27] was 28.3%. The viability, T/C [28] was 22.6%, the viability, T/C [29] was 26.1% and the viability, T/C [30] was 20.3%. For the same compound, the viability, T/C [31] was 67.7%, the viability, T/C [32] was 72.9% and the viability, T/C [33] was 59%. For the same compound, the viability, T/C [34] was 58.4%, the viability, T/C [35] was 61.2% and the viability, T/C [36] was 62%.
